Assay [1] has as its system rat ovocytes. Briefly: Inhibition of spontaneous activation of rat ovocytes by exposure to a proteasome inhibitor. In kind it is cell-based. The following applies: repeats n = 2. An excerpt: The method according to the invention presents the advantage of strictly and reversibly controlling the ovocyte activation process by acting upstream of the biochemical processes that control activation and by preventing the degradation of the macromolecular compounds responsible for arrest of the ovocyte in metaphase and in particular of the cyclins. In order to do this, the ovocyte is exposed in vitro to one or more inhibitor(s) of proteasome, a key organelle of the cell: inhibition of its proteolytic action on the cyclins makes it possible to maintain an elevated level of MPF kinasic activity which determines metaphase arrest. The majority of ovocytes may thus be maintained in metaphase of the second meiotic division for several hours after their harvest (table 1).
Solutions: • Medium M2 (Hogan & al, 1994 In: Manipulating the Mouse Embryo) • Medium RECMB2*-MG132 (MG132=1.25 μM) • Medium M2-Hyaluronidase-MG132 (MG132=1.25 μM; Hyaluronidase=2.5 mg/ml) • Medium M2-MG132 (MG132=5.00 μM) • *RECMB2=medium mRlECM-BSA (Oh & al. (1998) Biol. Reprod.), with BSA=4 mg/ml and NaCl=100-130 mM.
10. The “decoronised” ovocytes are transferred to a drop of culture medium RECMB2-MG132.

For assay [2], the system named is rat embryos reconstructed from ovocytes. Kind of assay: Rate of foetal development of rat embryos reconstructed from ovocytes previously exposed to a proteasome inhibitor. The format is in vivo. An excerpt:
By the method according to the invention, the ovocytes are transferred to a medium not containing inhibitor(s) right before conducting the reconstruction of the embryos. This makes it possible to avoid direct exposure of the nucleus donor cells to their action. Reconstruction of the embryos must then be carried out very rapidly before proteasome becomes functional again in order to avoid a premature activation of the ovocyte. The purpose of this rapid reconstruction is to […] the period during which the condensed chromatin of the nucleus is directly exposed to the ovocyte factors which make possible the reprogramming of the activity of the foreign nucleus. It then becomes possible to reconstitute a greater number of embryos during a given time period, and therefore to increase the number of transplanted embryos per recipient female for in vivo development. This possibility makes it possible to get around the low rate of implantation observed in the rat after transfer of a nucleus (table 4).
These foetuses may give rise to viable baby rats (table 4).
Set up the retention and enucleation-injection pipettes on their respective pipette holders. • 5. Position the pipettes so that their ends are horizontal, i.e., parallel to the coverglass of the micromanipulation chamber, and facing each other. • 6. Transfer the ovocytes and the cells to the micro-injection chamber by means of a pipette for manipulation of the ovocytes. • 7. Maintain an ovocyte on the maintenance pipette in order that the deformation of the plasma membrane under which the ovocyte metaphase is situated, is situated between 2 and 3 hr or between 3 and 4 hr. • 8. Apply the enucleation-injection pipette to the pellucid area at 3 hr. Verify that the pipette is in exactly the same plane as the pellucid area. Gently aspirate the pellucid area and activate the piezo system (setting 1) to puncture it. When the system is perfectly adjusted the pellucid area is punctured in a few seconds according to a perfect punch. • 9. Next, aspirate a cell whose morphology corresponds to the sought-for criteria into the enucleation-injection pipette and break its plasma membrane by several to-and-fro's in the pipette or by means of the piezo-Drill (a few impulsions are sufficient at setting 2). Maintain the cell close to the end of the micropipette. • 10. Penetrate into the perivitelline space of the ovocyte through the previously punctured orifice, apply the pipette against the plasma membrane and push the donor cell back to the end of the pipette and then push the pipette in up to the opposite end of the ovocyte without, however, reaching the plasma membrane opposite. • 11. Break the plasma membrane by means of one or more impulsions (1 to 3) of the Piezo-Drill (setting 2). • 12. Inject the cell into the cytoplasm of the ovocyte with the minimum possible medium. • 13. Gently withdraw the enucleation-injection pipette and re-close the ovocyte by aspirating the 2 ends of the broken plasma membrane and the ovocyte metaphase (enucleation). • 14. Transfer the reconstructed embryos into a micro-drop (50 μl) of RECMB2. • 15. Ovocyte activation is triggered or prolonged by transfer of the ovocytes to a micro-drop (20 μl) of RECMB2-BLI for a duration of activation generally between 1 and 2 hr. • 16. The ovocytes are then rinsed in 4-5 drops (50 μl) of RECMB2 to be cultured in the same medium while waiting to be transferred into a pseudogestating female or to prolong in vitro culture.

Assay [3] concerns rat ovocytes. Kind of assay: Reversibility of the inhibition of spontaneous activation of rat ovocytes (parthenogenetic development after removal of MG132 and activation by butyrolactone). The format is cell-based. The following applies: repeats n = 5.
[4] abbreviates: reconstructed embryos transferred to recipient females.

This note sets out measurements from patent US7799969B2, “Methods for cloning rats by nuclear transfer” (Institut National de la Recherche Agronomique, priority 2003, dated 2010).

Where a SMILES comes first, the peptide text is derived from it. The star is where a group is joined. Cbz = O=C(OCc1ccccc1)*

On to `CC(C)C[C@@H](C=O)NC(=O)[C@H](CC(C)C)NC(=O)[C@H](CC(C)C)NC(=O)OCc1ccccc1` [MG132, peptide aldehyde Cbz-LLL-H] (Cbz-Leu-Leu-Leu-aldehyde), for which, in assay [1] (t = 0), the “% of activated ovocytes after collection” value is 0% (0/68). Also, in assay [1] (t = 210 m after collection), the “% of activated ovocytes after collection” value is 33.8% (23/68). Further, in assay [2] (% in brackets), the “No. of foetuses (%) total” value is 55.9% and the “No. of foetuses (%) viable” value came to 47.0%. The “pregnant recipients between D12-22” value in assay [2] (number of recipient females) is reported as 11. In assay [2] (of the viable foetuses), the “living at D12-D14” value is recorded as 11 and the “living rats at term” value is on record as 5. Also, in assay [2] (rat, in vivo), the “No. of foetuses total” value turned out to be 19 and the “No. of foetuses viable” value is reported as 16. Also, in assay [2] (setting [4]), the “implantation (%)” value came out at 5.4% and the “implantation (number)” value is recorded as 34. In addition, the “% of embryos (parthenogenetic development at the morula stage)” value in assay [3] (t = 0 removal of MG132, exposure to MG132 for 120 min, activation by butyrolactone) is listed as 0% (0/71). Also, the “% of embryos (parthenogenetic development at the morula stage)” value in assay [3] (t = 120 min, after removal of MG132 and induction of activation by butyrolactone) is reported as 45.9% (34/74).
